From patent US20260274810A1, “NOVEL MITOFUSIN INHIBITORS” (ALBERT EINSTEIN COLLEGE OF MEDICINE, priority 2023, published 2026)

Tests used:
[1] = tested on: caspase-3/7 in U2OS cells; experiment: Caspase-3/7 activation assay; type: cell-based
Procedure: (§1) Caspase-3/7 activation assay. Cells (5×10^3 cells/well) were seeded in a 96-well white plate and treated with MASM7, MFI8. Caspase 3/7 activation was measured after 6 hr by addition of the Caspase-Glo 3/7 reagent according to the manufacturer's protocol (Promega). Luminescence was detected by a F200 PRO microplate reader (TECAN). Caspase assays were performed in at least triplicate and the data normalized to vehicle-treated control wells. Dilutions of MASM7 or MFI8 were performed using a TECAN D300e Digital Dispenser from 10 mM stocks.

MEFs [2] = experiment: Metabolomics (TCA cycle, NAD/NADH); type: cell-based, mouse
Procedure: Metabolomics. MEFs were treated with MASM7 and MFI8. Cells were harvested using a cell scraper and centrifuged at 1200 rpm in 4° C. for 3 min. Each cell pellet sample was suspended into 250 to 700 μL of 80% aqueous methanol in an Eppendorf tube. The samples were vortex mixed for 15 s and sonicated in an ice-water bath for 5 min, followed by centrifugal clarification at 15,000 rpm and 5° C. in an Eppendorf 5424R centrifuge. The clear supernatants were collected. A standard stock solution of TCA cycle carboxylic acids, NAD and NADH was prepared in 80% methanol as S1. This standard solution S1 was serially diluted 1 to 4 (v/v) with the same solvent to make standard solutions S2 to S10. 20 μL of each standard solution and an aliquot of the clear supernatant from each cell was mixed with 20 μL of an internal standard solution containing 9 ^13C- or deuterium labeled analogues of the TCA cycle carboxylic acids (except isocitric acid), 20 μL of 200 mM 3-NPH solution and 20 μL of 150 mM of EDC solution. The mixtures were allowed to react at 30° C. for 30 min. After reaction, 120 μL of water was added to each solution. 10 μL of the resultant solutions was injected into a C18 UPLC column to quantitate the TCA cycle carboxylic acids by UPLC-MRM/MS with (−) ion detection, according to the procedure we described in a publication.

MEFs [3] = experiment: Cytochrome C release; type: cell-based, mouse; settings: 6 hrs; mitofusin dependent
Procedure: Cytochrome C release. MEFs were seeded in a […] and grown at ~70% confluence. Following 6 hrs treatment with MFI8, cells were harvested and lysed in digitonin buffer [20 mM Hepes, pH 7.2, 10 mM KCl, 5 mM MgCl2, 1 m MEDTA, 1 mM EGTA, 250 mM sucrose, 0.025% Digitonin (from 5% w/v stock) and complete protease inhibitors (Roche Applied Science)] on ice for 10 min. Then, supernatants were isolated by centrifugation at 15,000×g for 10 min. Mitochondrial pellets solubilized in 1% Triton X-100/PBS for 1 hr at 4° C. Solubilized Pellets were subjected to a 14,000×rpm spin for 10 min. Samples were prepared for western blot analysis and separated by 4-12% NuPage (Life Technologies).

cells = experiment: Cell death assay (Annexin V / PI); type: cell-based
Procedure: Cell death assay. Cells (2×10^5 cells/well) were seeded in a 6-well plate and treated with the indicated drugs for 6 hours. Cells were dissociated using Accutase (Thermo Fisher; Cat. #00-4555-56) in order to avoid accidental exposure of phosphatidylserine on the outer plasma membrane. Cell death was evaluated with Dead Cell Apoptosis Kit with Annexin V Alexa Fluor™ 488 & Propidium Iodide (Thermo Fisher; Cat. #V13241) according to manufacturer's protocol. Data was acquired by BD LSRII flow cytometer system using BD FACSDiva software. Data was analyzed by FlowJo (BD).

MEFs [4] = experiment: RNA-seq; type: cell-based, mouse
Excerpt: RNA-seq. Sequencing results were demultiplexed and converted to FASTQ format using Illumina bcl2fastq software. The sequencing reads were adapter and quality trimmed with Trimmomatic and then aligned to the mouse genome (build mm10/GRCm38) using the splice-aware STAR aligner. The featureCounts program was utilized to generate counts for each gene based on how many aligned reads overlap its exons. These counts were then normalized and used to test for differential expression using negative binomial generalized linear models implemented by the DESeq2 R package.

MOLM13 cells = experiment: Caspase 3/7 activation with AMG-176; type: cell-based; settings: increasing concentrations of AMG-176 and MFI8
Procedure: as §1

[5] = tested on: Tomm20, mitotracker green, mtDNA/nDNA, mitochondrial biogenesis markers; experiment: Mitochondrial biomass and biogenesis markers; type: cell-based
Procedure: Western blot. Western blots were performed from whole cell lysates (WCL) prepared in lysis buffer containing 50 mM Tris-HCl pH 7.5, 1% Triton X-100, 150 mM NaCl, 5 mM MgCl2, 1 mM EGTA and 10% glycerol in the presence of protease inhibitor cocktail (Roche). WCL were separated on a 4-12% NuPAGE MES gel (Invitrogen), transferred into a PVDF membrane, block for 1 hr and immunoblot with the corresponding anti-bodies.
Analysis of mitochondrial biogenesis-related genes by q-PCR. Total RNA was extracted by using RNeasy Mini Kit (Qiagen) followed by cDNA synthesis using the SuperScript IV VILO Master Mix (Thermo Scientific), both performed according to the manufacturer's protocol. q-PCR was performed using the following primers: […]
For the q-PCR reaction, Power SYBR Green master mix (Thermo Scientific) was used according to the manufacturer's instructions. Briefly, each reaction consisted of 10 ng cDNA, 5 μL Power SYBR Green master mix, 200 nM primers (forward and reverse), and RNase-free water up to 10 μL. q-PCR was performed on the ViiA 7 Real-Time PCR System (Thermo Scientific) with the following cycle parameter: 95° C. for 10 min, 40 cycles of 95° C. for 15 s, and 60° C. for 1 min. q-PCR products were analyzed by melting curves for unspecific products or primer dimer formation. Rpi39 was used as housekeeping gene and 2^−ΔΔCT method was applied to determine the relative mRNAs expression. […]

SMILES: Cc1cccc(NC(C)c2cc(Cl)ccc2O)c1C (stereo not drawn) [MFI8]
- caspase-3/7 activation [1]: induced caspase-3/7 activation
- metabolites of the TCA cycle (MEFs [2]): markedly reduced several metabolites such as malate, oxaloacetate, and α-ketoglutarate
- total NAD+/NADH ratio (MEFs [2]): decreased the total NAD^+/NADH ratio
- cytochrome c release to the cytosol (MEFs [3]): cytochrome c was released to the cytosol, albeit at modest levels
- sensitization to BV6-induced cell death (cells; combined with BV6): potentiated the capacity of BV6 to induce cell death
- sensitization to BV6-induced cell death (cells; deletion of MFN1/2 and APAF): abolished the capacity of MFI8 to sensitize cells to BV6 treatment
- percentage of dead cells (cells; upon caspase 3/7 activation): did not increase the percentage of dead cells
- genes involved in DNA damage response (MEFs [4]; MEFs): up-regulated several genes that are involved in DNA damage response
- gene expression of subunits of the respiratory complexes (MEFs [4]; RNA-seq): reduced the gene expression of several nuclear-encoded subunits of the respiratory complexes
- caspase 3/7 activation in combination with AMG-176 (MOLM13 cells): sensitizes cells to caspase activation in response to BH3 mimetic (MCL-1 inhibitor) AMG-176 treatment
- gene expression levels of mitochondrial biogenesis markers [5]: no alteration
- Tomm20 protein levels, mitotracker green intensity and mitochondrial to nuclear DNA ratio ([5]; mitochondrial biomass): neither MASM7 nor MFI8 altered
